From ChEMBL document CHEMBL4011590, “Structure-activity relationship studies on 3,5-dinitrophenyl tetrazoles as antitubercular agents” (Eur J Med Chem, 2017)
Converted amounts (≈) assume the structure as drawn.

Tests used:
Candida tropicalis [1] = assay: Antifungal activity against Candida tropicalis 156 after 24 hrs by broth microdilution method; format: functional; settings: Candida tropicalis, 156, 24 h
Staphylococcus aureus [2] = assay: Antibacterial activity against Staphylococcus aureus ATCC 6538 after 24 hrs by broth microdilution method; format: functional; settings: ATCC 6538, 24 h
[3] = tested on: Trichophyton mentagrophytes; assay: Antifungal activity against Trichophyton mentagrophytes 445 after 120 hrs by broth microdilution method; format: functional; settings: Trichophyton mentagrophytes, 445, 120 h
CHO-K1 = assay: Cytotoxicity against CHOK1 cells after 24 hrs by MTT assay; format: cell-based; settings: Cricetulus griseus, CHO-K1, 24 h
Candida tropicalis [4] = assay: Antifungal activity against Candida tropicalis 156 after 48 hrs by broth microdilution method; format: functional; settings: Candida tropicalis, 156, 48 h
Nakaseomyces glabratus [5] = assay: Antifungal activity against Candida glabrata 20/I after 24 hrs by broth microdilution method; format: functional
Mycobacterium kansasii [6] = assay: Antimycobacterial activity against Mycobacterium kansasii CNCTC My 235/80 after 7 days by micromethod; format: functional; settings: CNCTC My 235/80, 168 h
Mycobacterium kansasii [7] = assay: Antimycobacterial activity against Mycobacterium kansasii isolate 6509/96 after 21 days by micromethod; format: functional; settings: isolate 6509/96, 504 h
Candida albicans [8] = assay: Antifungal activity against Candida albicans ATCC 44859 after 24 hrs by broth microdilution method; format: functional; settings: ATCC 44859, 24 h
Escherichia coli [9] = assay: Antibacterial activity against Escherichia coli ATCC 8739 after 48 hrs by broth microdilution method; format: functional; settings: ATCC 8739, 48 h
Staphylococcus aureus [10] = assay: Antibacterial activity against methicillin-resistant Staphylococcus aureus HK5996/08 after 24 hrs by broth microdilution method; format: functional; settings: HK5996/08, 24 h
Staphylococcus aureus [11] = assay: Antibacterial activity against methicillin-resistant Staphylococcus aureus HK5996/08 after 48 hrs by broth microdilution method; format: functional; settings: HK5996/08, 48 h
Aspergillus fumigatus [12] = assay: Antifungal activity against Aspergillus fumigatus 231 after 48 hrs by broth microdilution method; format: functional; settings: Aspergillus fumigatus, 231, 48 h
Klebsiella pneumoniae [13] = assay: Antibacterial activity against Klebsiella pneumoniae HK11750/08 after 24 hrs by broth microdilution method; format: functional; settings: HK11750/08, 24 h
Lichtheimia corymbifera [14] = assay: Antifungal activity against Absidia corymbifera 272 after 24 hrs by broth microdilution method; format: functional; settings: Lichtheimia corymbifera, 272, 24 h
Mycobacterium kansasii [15] = assay: Antimycobacterial activity against Mycobacterium kansasii isolate 6509/96 after 7 days by micromethod; format: functional; settings: isolate 6509/96, 168 h
Staphylococcus aureus [16] = assay: Antibacterial activity against Staphylococcus aureus ATCC 6538 after 48 hrs by broth microdilution method; format: functional; settings: ATCC 6538, 48 h
Mycobacterium kansasii [17] = assay: Antimycobacterial activity against Mycobacterium kansasii CNCTC My 235/80 after 21 days by micromethod; format: functional; settings: CNCTC My 235/80, 504 h
Candida albicans [18] = assay: Antifungal activity against Candida albicans ATCC 44859 after 48 hrs by broth microdilution method; format: functional; settings: ATCC 44859, 48 h
Klebsiella pneumoniae [19] = assay: Antibacterial activity against extended spectrum beta-lactamase producing Klebsiella pneumoniae HK14368/08 after 48 hrs by broth microdilution method; format: functional; settings: HK14368/08, 48 h
Lichtheimia corymbifera [20] = assay: Antifungal activity against Absidia corymbifera 272 after 48 hrs by broth microdilution method; format: functional; settings: Lichtheimia corymbifera, 272, 48 h
[21] = tested on: Mycobacterium tuberculosis; assay: Antimycobacterial activity against Mycobacterium tuberculosis H37Rv CNCTC My 331/88 after 14 days by micromethod; format: functional; settings: H37Rv CNCTC My 331/88, 336 h
Enterococcus sp. [22] = assay: Antibacterial activity against Enterococcus sp. HK14365/08 after 24 hrs by broth microdilution method; format: functional; settings: HK14365/08, 24 h
Nakaseomyces glabratus [23] = assay: Antifungal activity against Candida glabrata 20/I after 48 hrs by broth microdilution method; format: functional
Mycobacterium kansasii [24] = assay: Antimycobacterial activity against Mycobacterium kansasii CNCTC My 235/80 after 14 days by micromethod; format: functional; settings: CNCTC My 235/80, 336 h
Escherichia coli [25] = assay: Antibacterial activity against Escherichia coli ATCC 8739 after 24 hrs by broth microdilution method; format: functional; settings: ATCC 8739, 24 h
Pichia kudriavzevii [26] = assay: Antifungal activity against Candida krusei E28 after 48 hrs by broth microdilution method; format: functional; settings: E28, 48 h
Pseudomonas aeruginosa [27] = assay: Antibacterial activity against Pseudomonas aeruginosa ATCC 9027 after 24 hrs by broth microdilution method; format: functional; settings: ATCC 9027, 24 h
[28] = tested on: Trichophyton mentagrophytes; assay: Antifungal activity against Trichophyton mentagrophytes 445 after 72 hrs by broth microdilution method; format: functional; settings: Trichophyton mentagrophytes, 445, 72 h
Enterococcus sp. [29] = assay: Antibacterial activity against Enterococcus sp. HK14365/08 after 48 hrs by broth microdilution method; format: functional; settings: HK14365/08, 48 h
[30] = tested on: Staphylococcus epidermidis; assay: Antibacterial activity against Staphylococcus epidermidis HK6966/08 after 48 hrs by broth microdilution method; format: functional; settings: HK6966/08, 48 h
Klebsiella pneumoniae [31] = assay: Antibacterial activity against Klebsiella pneumoniae HK11750/08 after 48 hrs by broth microdilution method; format: functional; settings: HK11750/08, 48 h
Trichosporon asahii [32] = assay: Antifungal activity against Trichosporon asahii 1188 after 48 hrs by broth microdilution method; format: functional; settings: Trichosporon asahii, 1188, 48 h
Mycobacterium avium [33] = assay: Antimycobacterial activity against Mycobacterium avium CNCTC My 330/80 after 14 days by micromethod; format: functional; settings: CNCTC My 330/80, 336 h
Pseudomonas aeruginosa [34] = assay: Antibacterial activity against Pseudomonas aeruginosa ATCC 9027 after 48 hrs by broth microdilution method; format: functional; settings: ATCC 9027, 48 h
Klebsiella pneumoniae [35] = assay: Antibacterial activity against extended spectrum beta-lactamase producing Klebsiella pneumoniae HK14368/08 after 24 hrs by broth microdilution method; format: functional; settings: HK14368/08, 24 h
[36] = tested on: Mycobacterium tuberculosis; assay: Antimycobacterial activity against Mycobacterium tuberculosis H37Rv CNCTC My 331/88 after 21 days by micromethod; format: functional; settings: H37Rv CNCTC My 331/88, 504 h
Mycobacterium kansasii [37] = assay: Antimycobacterial activity against Mycobacterium kansasii isolate 6509/96 after 14 days by micromethod; format: functional; settings: isolate 6509/96, 336 h
Mycobacterium avium [38] = assay: Antimycobacterial activity against Mycobacterium avium CNCTC My 330/80 after 21 days by micromethod; format: functional; settings: CNCTC My 330/80, 504 h
Trichosporon asahii [39] = assay: Antifungal activity against Trichosporon asahii 1188 after 24 hrs by broth microdilution method; format: functional; settings: Trichosporon asahii, 1188, 24 h
Pichia kudriavzevii [40] = assay: Antifungal activity against Candida krusei E28 after 24 hrs by broth microdilution method; format: functional; settings: E28, 24 h
[41] = tested on: Staphylococcus epidermidis; assay: Antibacterial activity against Staphylococcus epidermidis HK6966/08 after 24 hrs by broth microdilution method; format: functional; settings: HK6966/08, 24 h
Aspergillus fumigatus [42] = assay: Antifungal activity against Aspergillus fumigatus 231 after 24 hrs by broth microdilution method; format: functional; settings: Aspergillus fumigatus, 231, 24 h

With O=[N+]([O-])c1cc(-c2nnn(Cc3ccc(F)cc3)n2)cc([N+](=O)[O-])c1 the MIC (Candida tropicalis [1]) was greater than 500 µM, the MIC (Staphylococcus aureus [2]) was greater than 500 µM and the MIC [3] was greater than 500 µM. It also gave an IC50 (CHO-K1) of 35 µM, an MIC (Candida tropicalis [4]) greater than 500 µM and an MIC (Nakaseomyces glabratus [5]) greater than 500 µM. It also gave an MIC99 (Mycobacterium kansasii [6]) of 1 µM (≈ 0.344 µg/mL), an MIC99 (Mycobacterium kansasii [7]) of 4 µM (≈ 1.38 µg/mL) and an MIC (Candida albicans [8]) greater than 500 µM. For the same compound, the MIC (Escherichia coli [9]) was greater than 500 µM, the MIC (Staphylococcus aureus [10]) was greater than 500 µM and the MIC (Staphylococcus aureus [11]) was greater than 500 µM. It also gave an MIC (Aspergillus fumigatus [12]) greater than 500 µM, an MIC (Klebsiella pneumoniae [13]) greater than 500 µM and an MIC (Lichtheimia corymbifera [14]) greater than 500 µM. The MIC99 (Mycobacterium kansasii [15]) was 1 µM (≈ 0.344 µg/mL), the MIC (Staphylococcus aureus [16]) was greater than 500 µM and the MIC99 (Mycobacterium kansasii [17]) was 2 µM (≈ 0.689 µg/mL). The MIC (Candida albicans [18]) was greater than 500 µM, the MIC (Klebsiella pneumoniae [19]) was greater than 500 µM and the MIC (Lichtheimia corymbifera [20]) was greater than 500 µM. It also gave an MIC99 [21] of 0.25 µM (≈ 0.0861 µg/mL), an MIC (Enterococcus sp. [22]) greater than 500 µM and an MIC (Nakaseomyces glabratus [23]) greater than 500 µM. It also gave an MIC99 (Mycobacterium kansasii [24]) of 2 µM (≈ 0.689 µg/mL), an MIC (Escherichia coli [25]) greater than 500 µM and an MIC (Pichia kudriavzevii [26]) greater than 500 µM. The MIC (Pseudomonas aeruginosa [27]) was greater than 500 µM, the MIC [28] was greater than 500 µM and the MIC (Enterococcus sp. [29]) was greater than 500 µM. The MIC [30] was greater than 500 µM, the MIC (Klebsiella pneumoniae [31]) was greater than 500 µM and the MIC (Trichosporon asahii [32]) was greater than 500 µM. It also gave an MIC99 (Mycobacterium avium [33]) of 8 µM (≈ 2.75 µg/mL), an MIC (Pseudomonas aeruginosa [34]) greater than 500 µM and an MIC (Klebsiella pneumoniae [35]) greater than 500 µM. It also gave an MIC99 [36] of 0.5 µM (≈ 0.172 µg/mL), an MIC99 (Mycobacterium kansasii [37]) of 2 µM (≈ 0.689 µg/mL) and an MIC99 (Mycobacterium avium [38]) of 8 µM (≈ 2.75 µg/mL). It also gave an MIC (Trichosporon asahii [39]) greater than 500 µM, an MIC (Pichia kudriavzevii [40]) greater than 500 µM and an MIC [41] greater than 500 µM. For the same compound, the MIC (Aspergillus fumigatus [42]) was greater than 500 µM.
With O=[N+]([O-])c1cc(-c2nnn(Cc3cccc(Cl)c3)n2)cc([N+](=O)[O-])c1 the MIC (Candida tropicalis [1]) was greater than 500 µM, the MIC (Staphylococcus aureus [2]) was greater than 500 µM and the MIC [3] was greater than 500 µM. For the same compound, the IC50 (CHO-K1) was 27 µM, the MIC (Candida tropicalis [4]) was greater than 500 µM and the MIC (Nakaseomyces glabratus [5]) was greater than 500 µM. The MIC99 (Mycobacterium kansasii [6]) was 1 µM (≈ 0.361 µg/mL), the MIC99 (Mycobacterium kansasii [7]) was 2 µM (≈ 0.721 µg/mL) and the MIC (Candida albicans [8]) was greater than 500 µM. It also gave an MIC (Escherichia coli [9]) greater than 500 µM, an MIC (Staphylococcus aureus [10]) greater than 500 µM and an MIC (Staphylococcus aureus [11]) greater than 500 µM. For the same compound, the MIC (Aspergillus fumigatus [12]) was greater than 500 µM, the MIC (Klebsiella pneumoniae [13]) was greater than 500 µM and the MIC (Lichtheimia corymbifera [14]) was greater than 500 µM. The MIC99 (Mycobacterium kansasii [15]) was 0.5 µM (≈ 0.18 µg/mL), the MIC (Staphylococcus aureus [16]) was greater than 500 µM and the MIC99 (Mycobacterium kansasii [17]) was 2 µM (≈ 0.721 µg/mL). For the same compound, the MIC (Candida albicans [18]) was greater than 500 µM, the MIC (Klebsiella pneumoniae [19]) was greater than 500 µM and the MIC (Lichtheimia corymbifera [20]) was greater than 500 µM. The MIC99 [21] was 0.5 µM (≈ 0.18 µg/mL), the MIC (Enterococcus sp. [22]) was greater than 500 µM and the MIC (Nakaseomyces glabratus [23]) was greater than 500 µM. For the same compound, the MIC99 (Mycobacterium kansasii [24]) was 2 µM (≈ 0.721 µg/mL), the MIC (Escherichia coli [25]) was greater than 500 µM and the MIC (Pichia kudriavzevii [26]) was greater than 500 µM. The MIC (Pseudomonas aeruginosa [27]) was greater than 500 µM, the MIC [28] was greater than 500 µM and the MIC (Enterococcus sp. [29]) was greater than 500 µM. The MIC [30] was greater than 500 µM, the MIC (Klebsiella pneumoniae [31]) was greater than 500 µM and the MIC (Trichosporon asahii [32]) was greater than 500 µM. The MIC99 (Mycobacterium avium [33]) was 4 µM (≈ 1.44 µg/mL), the MIC (Pseudomonas aeruginosa [34]) was greater than 500 µM and the MIC (Klebsiella pneumoniae [35]) was greater than 500 µM. For the same compound, the MIC99 [36] was 0.5 µM (≈ 0.18 µg/mL), the MIC99 (Mycobacterium kansasii [37]) was 1 µM (≈ 0.361 µg/mL) and the MIC99 (Mycobacterium avium [38]) was 8 µM (≈ 2.89 µg/mL). It also gave an MIC (Trichosporon asahii [39]) greater than 500 µM, an MIC (Pichia kudriavzevii [40]) greater than 500 µM and an MIC [41] greater than 500 µM. The MIC (Aspergillus fumigatus [42]) was greater than 500 µM.
